# In patent US11839214B2, “Fungicidal mixture comprising substituted pyridines” (BASF SE, priority 2017, dated 2023):
# Assays:
# Format in all cases: cell-based
# Sclerotinia sclerotiorum = experiment: Activity against Sclerotinia sclerotiorum in the microtiterplate test; conditions: Sclerotinia sclerotiorum, 168 h, read-out: Observed efficacy
# Septoria tritici = experiment: Activity against leaf blotch on wheat caused by Septoria tritici (microtiterplate test)
# Pyricularia oryzae = experiment: microbe, parasite or virus in culture; conditions: for Observed efficacy: single active compound
# Botrytis cinerea = experiment: Activity against the grey mold Botrytis cinerea in the microtiterplate test; conditions: single active compound
# [1] = Zymoseptoria tritici, 168 h, read-out: Observed efficacy
# [2] = Pyricularia oryzae, 168 h, read-out: Observed efficacy
# [3] = Botrytis cinerea, 168 h, read-out: Observed efficacy
# [4] = Zymoseptoria tritici, 168 h, single active, 4 ppm, read-out: Observed efficacy
# [5] = Zymoseptoria tritici, 168 h, single active, read-out: Observed efficacy
# [6] = Zymoseptoria tritici, 168 h, single active, 0.016 ppm, read-out: Observed efficacy
compound,measurement,setting,value
"N#Cc1c[nH]cc1-c1cccc2c1OC(F)(F)O2 [Fludioxonil, fludioxonil]",inhibition of growth at 0.016 ppm,Sclerotinia sclerotiorum,13%
same,inhibition of growth at 0.25 ppm,Septoria tritici; [1],10%
same,inhibition of growth at 0.004 ppm,Pyricularia oryzae; [2],16%
same,inhibition of growth at 0.016 ppm,Pyricularia oryzae; [2],35%
same,inhibition of growth at 0.063 ppm,Pyricularia oryzae; [2],40%
"CC1CC(C)(C)c2c(F)ccc(NC(=O)c3cn(C)nc3C(F)F)c21 (centres unmarked) [Fluindapyr, fluindapyr]",Observed efficacy,Botrytis cinerea; 0.25 ppm,30%
same,Observed efficacy,"Septoria tritici; single active, 0.25 ppm",22%
same,Observed efficacy,"Septoria tritici; single active, 1 ppm",67%
same,Observed efficacy,Pyricularia oryzae; 1 ppm,41%
"CO/C=C(/C(=O)OC)c1ccccc1Oc1cc(Oc2ccccc2C#N)ncn1 [Azoxystrobin, azoxystrobin]",Observed efficacy,Botrytis cinerea; 0.063 ppm,5%
same,Observed efficacy,"Septoria tritici; single active, 0.004 ppm",5%
same,Observed efficacy,"Septoria tritici; single active, 0.016 ppm",2%
same,Observed efficacy,"Septoria tritici; single active, 0.063 ppm",26%
same,Observed efficacy,Pyricularia oryzae; 0.004 ppm,4%
same,Observed efficacy,Pyricularia oryzae; 0.016 ppm,44%
"Cc1ccc(NC(=O)c2snnc2C)cc1Cl [Tiadinil, tiadinil]",inhibition of growth at 16 ppm,Botrytis cinerea; [3],6%
same,inhibition of growth at 63 ppm,"Botrytis cinerea; Botrytis cinerea, 168 h, 63 ppm, read-out: Observed efficacy",19%
same,inhibition of growth at 4 ppm,Septoria tritici; [4],21%
same,inhibition of growth at 16 ppm,Septoria tritici; [5],18%
same,inhibition of growth at 63 ppm,"Septoria tritici; Zymoseptoria tritici, 168 h, single active, 63 ppm, read-out: Observed efficacy",30%
same,inhibition of growth at 4 ppm,Pyricularia oryzae; [2],2%
same,inhibition of growth at 16 ppm,Pyricularia oryzae; [2],10%
same,inhibition of growth at 63 ppm,Pyricularia oryzae; [2],21%
metiram,Observed efficacy,"Septoria tritici; single active, 1 ppm",2%
same,Observed efficacy,"Septoria tritici; single active, 4 ppm",4%
same,Observed efficacy,Pyricularia oryzae; 4 ppm,8%
"COCC(=O)N(c1c(C)cccc1C)C(C)C(=O)OC (centres unmarked) [Metalaxyl, metalaxyl]",inhibition of growth at 4 ppm,Botrytis cinerea; [3],19%
same,inhibition of growth at 1 ppm,Pyricularia oryzae; [2],4%
same,inhibition of growth at 4 ppm,Pyricularia oryzae; [2],11%
"OC(Cc1ccccc1Cl)(Cn1nc[nH]c1=S)C1(Cl)CC1 (centres unmarked) [Prothioconazol, prothioconazole]",inhibition of growth at 0.063 ppm,"Septoria tritici; Zymoseptoria tritici, 168 h, single active, 0.063 ppm, read-out: Observed efficacy",1%
same,inhibition of growth at 0.25 ppm,Pyricularia oryzae; [2],12%
"CC(O)(Cn1cncn1)c1ccc(Oc2ccc(Cl)cc2)cc1C(F)(F)F (centres unmarked) [Mefentrifluconazol, mefentrifluconazole]",Observed efficacy,Botrytis cinerea; 0.016 ppm,10%
same,Observed efficacy,Pyricularia oryzae; 0.016 ppm,7%
"COc1cc(C)c(C(=O)c2c(OC)ccc(Br)c2C)c(OC)c1OC [Metrafenon, metrafenone]",inhibition of growth at 4 ppm,Botrytis cinerea; [3],3%
same,inhibition of growth at 16 ppm,Botrytis cinerea; [3],18%
same,inhibition of growth at 4 ppm,Septoria tritici; [4],4%
same,inhibition of growth at 16 ppm,Septoria tritici; [5],16%
same,inhibition of growth at 1 ppm,Pyricularia oryzae; [2],2%
same,inhibition of growth at 4 ppm,Pyricularia oryzae; [2],7%
"Cn1cc(C(=O)Nc2ccccc2-c2cc(F)c(F)c(F)c2)c(C(F)F)n1 [Fluxapyroxad, fluxapyroxad]",Observed efficacy,Botrytis cinerea; 0.063 ppm,28%
same,Observed efficacy,"Septoria tritici; single active, 0.063 ppm",24%
same,Observed efficacy,Pyricularia oryzae; 0.063 ppm,8%
"Cc1cc(OC(C)C)ccc1C(=O)C(C)(C)NC(=O)c1sccc1C [Isofetamid, isofetamid]",Observed efficacy,Botrytis cinerea; 1 ppm,68%
same,Observed efficacy,"Septoria tritici; single active, 0.25 ppm",44%
same,Observed efficacy,Pyricularia oryzae; 1 ppm,1%
same,Observed efficacy,Pyricularia oryzae; 4 ppm,10%
"CNC(=O)C(OC)c1ccccc1COc1cc(C)ccc1C (centres unmarked) [Mandestrobin, mandestrobin]",Observed efficacy,"Septoria tritici; single active, 1 ppm",11%
same,Observed efficacy,Pyricularia oryzae; 1 ppm,9%
"COC(=O)N(OC)c1ccccc1COc1ccn(-c2ccc(Cl)cc2)n1 [Pyraclostrobin, pyraclostrobin]",inhibition of growth at 0.004 ppm,"Septoria tritici; Zymoseptoria tritici, 168 h, single active, 0.004 ppm, read-out: Observed efficacy",7%
same,inhibition of growth at 0.016 ppm,Septoria tritici; [6],52%
same,inhibition of growth at 0.001 ppm,Pyricularia oryzae; [2],4%
same,inhibition of growth at 0.004 ppm,Pyricularia oryzae; [2],14%
"CC1(C)CCC(=Cc2ccc(Cl)cc2)C1(O)Cn1cncn1 (centres unmarked) [Triticonazol, triticonazole]",inhibition of growth at 1 ppm,Pyricularia oryzae; [2],10%
"Cc1cccc2sc3nncn3c12 [Tricyclazol, tricyclazole]",inhibition of growth at 4 ppm,Botrytis cinerea; [3],2%
same,inhibition of growth at 4 ppm,Pyricularia oryzae; [2],6%
"CON=C(C(=O)OC)c1ccccc1CON=C(C)c1cccc(C(F)(F)F)c1 [Trifloxystrobin, trifloxystrobin]",inhibition of growth at 0.063 ppm,"Botrytis cinerea; Botrytis cinerea, 168 h, 0.063 ppm, read-out: Observed efficacy",4%
same,inhibition of growth at 0.016 ppm,Septoria tritici; [6],27%
same,inhibition of growth at 0.004 ppm,Pyricularia oryzae; [2],8%
same,inhibition of growth at 0.016 ppm,Pyricularia oryzae; [2],23%
"Cc1cc(C2CC2)nc(Nc2ccccc2)n1 [Cyprodinil, cyprodinil]",inhibition of growth at 4 ppm,Botrytis cinerea; [3],53%
same,inhibition of growth at 4 ppm,Septoria tritici; [4],10%
same,inhibition of growth at 1 ppm,Pyricularia oryzae; [2],50%
same,inhibition of growth at 4 ppm,Pyricularia oryzae; [2],61%
"CC1COC(Cn2cncn2)(c2ccc(Oc3ccc(Cl)cc3)cc2Cl)O1 (centres unmarked) [Difenoconazol, difenoconazole]",inhibition of growth at 0.25 ppm,"Botrytis cinerea; Botrytis cinerea, 168 h, 0.25 ppm, read-out: Observed efficacy",21%
same,inhibition of growth at 0.016 ppm,Septoria tritici; [6],22%
same,inhibition of growth at 0.063 ppm,Pyricularia oryzae; [2],2%
same,inhibition of growth at 0.25 ppm,Pyricularia oryzae; [2],11%
"S1SSSSSSS1 [Sulfur, sulfur]",inhibition of growth at 1 ppm,Septoria tritici; [1],18%
same,inhibition of growth at 4 ppm,Pyricularia oryzae; [2],54%
"OCC1=C[C@H](N[C@H]2C[C@H](CO)[C@@H](O[C@@H]3O[C@H](CO)[C@@H](O)[C@H](O)[C@H]3O)[C@H](O)[C@H]2O)[C@H](O)[C@@H](O)[C@@H]1O [Validamycin, validamycin]",inhibition of growth at 63 ppm,Pyricularia oryzae; [2],10%
CC1(C)CCC(Cc2ccc(Cl)cc2)C1(O)Cn1cncn1 (centres unmarked) [Metconazol],Observed efficacy,"Septoria tritici; single active, 0.063 ppm",30%
